{"source": "paper PMC9038691", "about": "“A structural exposé of noncanonical molecular reactivity within the protein tyrosine phosphatase WPD loop” (Nature communications, 2022)", "key": {"[1]": {"biological_target": "T1, AtPFA-DSP1^49–215 (Arabidopsis thaliana, UniProt Q9ZVN4, C150S)", "T1 construct": "core catalytic domain, residues 49-215; N-terminal 6xHis-MBP tag cut with TEV protease; E. coli; monomer in solution", "T1 sequence (Q9ZVN4 49-215 C150S)": "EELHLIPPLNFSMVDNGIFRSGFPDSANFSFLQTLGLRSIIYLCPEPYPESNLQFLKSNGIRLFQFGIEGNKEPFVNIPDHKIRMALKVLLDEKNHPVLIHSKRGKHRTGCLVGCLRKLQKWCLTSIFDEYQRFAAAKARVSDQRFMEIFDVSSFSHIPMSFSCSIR", "assay": "X-ray crystal structure (soak)", "assay_type": "binding", "conditions": "active site"}, "[2]": {"biological_target": "T2, AtPFA-DSP1 (full-length) (Arabidopsis thaliana, UniProt Q9ZVN4)", "T2 construct": "full-length (codon-optimized cDNA, Genscript); pDest-566, N-terminal 6xHis-MBP tag cut with TEV protease; E. coli", "T2 sequence (Q9ZVN4 whole entry)": "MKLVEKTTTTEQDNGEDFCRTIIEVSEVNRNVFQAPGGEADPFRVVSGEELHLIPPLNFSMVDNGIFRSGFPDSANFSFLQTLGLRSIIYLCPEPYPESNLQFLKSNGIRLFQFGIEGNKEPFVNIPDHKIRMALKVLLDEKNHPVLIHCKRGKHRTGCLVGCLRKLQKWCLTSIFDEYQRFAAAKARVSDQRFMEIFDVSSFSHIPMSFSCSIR", "assay": "malachite green Pi release", "assay_type": "biochemical", "conditions": "pH 7.2, 30 °C, 100 mM KCl, 0.8 mM MgCl2"}}}
{"smiles": "O=P(O)(O)O[C@H]1[C@@H](OP(=O)(O)O)[C@H](OP(=O)(O)O)[C@@H](OP(=O)(O)OP(=O)(O)O)[C@H](OP(=O)(O)O)[C@H]1OP(=O)(O)O", "note": "[5-InsP7, 5-diphosphoinositol 1,2,3,4,6-pentakisphosphate]", "values": [{"measurement": "X-ray crystal structure (soak)", "setting": "[1]; substrate-trapping mutant, displaces Pi", "result": "it could now be successfully substituted by 5-InsP7"}]}
{"smiles": "O=P(O)(O)O[C@@H]1[C@@H](OP(=O)(O)OP(=O)(O)O)[C@H](OP(=O)(O)O)[C@@H](OP(=O)(O)O)[C@@H](O)[C@H]1OP(=O)(O)O", "note": "[5-PP-InsP4, 5-diphosphoinositol 1,3,4,6-tetrakisphosphate]", "values": [{"measurement": "X-ray crystal structure (soak)", "setting": "[1]; beta-IN and beta-OUT poses, the latter together with Pi", "result": "instructive crystals of AtPFA-DSP1 in complex with 5-PP-InsP4"}]}
{"smiles": "O=P(O)(O)O[C@H]1[C@@H](OP(=O)(O)O)[C@@H](OP(=O)(O)O)[C@H](OP(=O)(O)OP(=O)(O)O)[C@@H](OP(=O)(O)O)[C@@H]1OP(=O)(O)O", "note": "[6-InsP7, 6-diphosphoinositol 1,2,3,4,5-pentakisphosphate]", "values": [{"measurement": "Km", "setting": "[2]", "result": "(c), 6-InsP7"}]}
